Test results taken from patent US9663517B2, “Compositions and uses thereof” (Plexxikon Inc., priority 2009, dated 2017).

Assay: pKa of weakly basic centre
Type: physicochemical
Conditions: N-7 of the azaindole portion
Excerpt: Propane-1-sulfonic acid {3-[5-(4-chloro-phenyl)-1H-pyrrolo[2,3-b]pyridine-3-carbonyl]-2,4-difluoro-phenyl}-amide is characterized as having functionalities providing both weakly basic and weakly acidic centers which can form organic salt complexes, resulting in improved solubility. For example, the N-7 of the azaindole portion is weakly basic (pKa approximately 4-5) and can form an acid addition salt complex with an organic acid such as benzenesulfonic acid, methylsulfonic acid or toluenesulfonic acid, preferably methanesulfonic acid or toluenesulfonic acid. Such mesylate or tosylate salts provide advantage over the free base, such as an improved solubility, improved intrinsic dissolution rate, and lower melting point than the free base. The improved intrinsic dissolution rate provides an advantage in formulation of the salt, for example, formulation in an amorphous form by methods described in the above examples. The improved solubility provides more efficient and cost effective formulation, for example spray drying or microprecipitated bulk processing can be performed using far less solvent volumes due to the intrinsic solubility. Such advantages may also be provided by formation of the mesylate or tosylate salt in situ during the processing, for example the process of spray drying, solvent controlled precipitation, or pH controlled precipitation. […]

pKa: 4 to 5
Compound: CCCS(=O)(=O)Nc1ccc(F)c(C(=O)c2c[nH]c3ncc(-c4ccc(Cl)cc4)cc23)c1F [Compound I, propane-1-sulfonic acid {3-[5-(4-chloro-phenyl)-1H-pyrrolo[2,3-b]pyridine-3-carbonyl]-2,4-difluoro-phenyl}-amide]
